Some targets named below: Aurora kinase A (Homo sapiens, UniProt O14965); Insulin receptor (Homo sapiens, UniProt P06213); Aurora kinase B (Homo sapiens, UniProt Q96GD4).
Common to all, as to format: functional
Test [1] concerns the target Protein kinase C theta type (Homo sapiens, UniProt Q04759). Put plainly: Navigating the Kinome. Panel member name: PRKCQ.
Test [2] has as its target Serine/threonine-protein kinase PLK3 (Homo sapiens, UniProt Q9H4B4).
Test [3] deals with RAC-gamma serine/threonine-protein kinase (Homo sapiens, UniProt Q9Y243).
The target in test [4] is Serine/threonine-protein kinase PLK4 (Homo sapiens, UniProt O00444).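 Note: PLK4 measured as one member of a kinome-wide kinase profiling panel.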
Test [5] has as its target Serine/threonine-protein kinase pim-1 (Homo sapiens, UniProt P11309).
The target in test [6] is Fibroblast growth factor receptor 1 (Homo sapiens, UniProt P11362).
Chain of Fibroblast growth factor receptor 1 (P11362 whole entry): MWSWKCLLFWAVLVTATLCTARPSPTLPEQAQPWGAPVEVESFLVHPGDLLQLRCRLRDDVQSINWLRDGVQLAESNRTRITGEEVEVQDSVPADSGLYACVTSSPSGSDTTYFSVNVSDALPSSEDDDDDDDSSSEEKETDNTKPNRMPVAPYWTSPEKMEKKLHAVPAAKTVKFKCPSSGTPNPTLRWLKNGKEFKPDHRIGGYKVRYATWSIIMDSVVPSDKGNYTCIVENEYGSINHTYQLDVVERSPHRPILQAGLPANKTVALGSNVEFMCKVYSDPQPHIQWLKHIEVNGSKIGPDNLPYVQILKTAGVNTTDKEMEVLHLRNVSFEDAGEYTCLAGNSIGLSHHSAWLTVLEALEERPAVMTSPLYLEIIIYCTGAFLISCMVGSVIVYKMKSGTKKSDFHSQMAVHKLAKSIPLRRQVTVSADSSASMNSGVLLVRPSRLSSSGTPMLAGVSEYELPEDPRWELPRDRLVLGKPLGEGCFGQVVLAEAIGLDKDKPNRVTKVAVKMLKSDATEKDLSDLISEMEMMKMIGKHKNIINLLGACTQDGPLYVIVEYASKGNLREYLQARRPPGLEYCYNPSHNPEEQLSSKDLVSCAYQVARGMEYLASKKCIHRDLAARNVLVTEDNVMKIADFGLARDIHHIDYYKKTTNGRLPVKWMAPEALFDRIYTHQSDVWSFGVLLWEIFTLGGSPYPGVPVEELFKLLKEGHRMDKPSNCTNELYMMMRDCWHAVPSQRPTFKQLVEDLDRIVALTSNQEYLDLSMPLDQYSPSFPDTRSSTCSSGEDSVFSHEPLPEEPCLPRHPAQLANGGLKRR
Test [7] has as its target Serine/threonine-protein kinase pim-3 (Homo sapiens, UniProt Q86V86).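 Note: value obtained as one member of a broad kinase panel profiling effort.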
The target in test [8] is Platelet-derived growth factor receptor beta (Homo sapiens, UniProt P09619).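 Note: value comes from a kinome panel, with PDGFRB tested as one panel member.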
Chain of Platelet-derived growth factor receptor beta (P09619 whole entry): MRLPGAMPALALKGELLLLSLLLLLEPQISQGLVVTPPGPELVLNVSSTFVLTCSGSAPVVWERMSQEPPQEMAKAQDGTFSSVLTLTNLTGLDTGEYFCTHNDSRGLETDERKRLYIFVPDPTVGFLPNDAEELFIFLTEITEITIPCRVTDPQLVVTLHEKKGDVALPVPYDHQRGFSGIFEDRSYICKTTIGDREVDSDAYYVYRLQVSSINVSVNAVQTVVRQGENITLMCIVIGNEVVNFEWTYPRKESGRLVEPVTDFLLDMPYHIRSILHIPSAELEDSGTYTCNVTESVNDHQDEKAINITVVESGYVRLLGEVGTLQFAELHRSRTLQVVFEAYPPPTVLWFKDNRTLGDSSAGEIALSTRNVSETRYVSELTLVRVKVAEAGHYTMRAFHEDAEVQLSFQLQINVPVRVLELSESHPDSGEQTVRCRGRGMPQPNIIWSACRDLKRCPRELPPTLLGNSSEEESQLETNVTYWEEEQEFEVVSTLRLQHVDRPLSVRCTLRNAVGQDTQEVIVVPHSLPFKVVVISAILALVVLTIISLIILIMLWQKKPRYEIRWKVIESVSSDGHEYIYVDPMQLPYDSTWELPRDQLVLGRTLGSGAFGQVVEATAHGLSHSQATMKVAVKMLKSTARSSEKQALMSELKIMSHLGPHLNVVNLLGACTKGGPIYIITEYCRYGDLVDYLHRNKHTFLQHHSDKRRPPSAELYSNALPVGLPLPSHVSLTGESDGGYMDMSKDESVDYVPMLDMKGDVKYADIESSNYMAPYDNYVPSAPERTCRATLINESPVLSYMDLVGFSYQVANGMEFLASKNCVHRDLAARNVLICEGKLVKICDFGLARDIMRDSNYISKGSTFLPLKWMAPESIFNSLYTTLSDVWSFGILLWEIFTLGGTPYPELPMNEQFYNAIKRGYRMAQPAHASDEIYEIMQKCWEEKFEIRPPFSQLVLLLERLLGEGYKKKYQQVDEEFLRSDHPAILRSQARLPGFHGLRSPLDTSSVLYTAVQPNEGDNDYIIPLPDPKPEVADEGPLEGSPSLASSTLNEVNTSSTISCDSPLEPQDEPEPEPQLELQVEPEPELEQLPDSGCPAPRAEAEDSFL
Test [9] concerns the target T1, Receptor-type tyrosine-protein kinase FLT3 (Homo sapiens, UniProt P36888).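 Note: FLT3 was tested as one member of a kinome-wide kinase panel.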
T1 sequence (P36888 whole entry): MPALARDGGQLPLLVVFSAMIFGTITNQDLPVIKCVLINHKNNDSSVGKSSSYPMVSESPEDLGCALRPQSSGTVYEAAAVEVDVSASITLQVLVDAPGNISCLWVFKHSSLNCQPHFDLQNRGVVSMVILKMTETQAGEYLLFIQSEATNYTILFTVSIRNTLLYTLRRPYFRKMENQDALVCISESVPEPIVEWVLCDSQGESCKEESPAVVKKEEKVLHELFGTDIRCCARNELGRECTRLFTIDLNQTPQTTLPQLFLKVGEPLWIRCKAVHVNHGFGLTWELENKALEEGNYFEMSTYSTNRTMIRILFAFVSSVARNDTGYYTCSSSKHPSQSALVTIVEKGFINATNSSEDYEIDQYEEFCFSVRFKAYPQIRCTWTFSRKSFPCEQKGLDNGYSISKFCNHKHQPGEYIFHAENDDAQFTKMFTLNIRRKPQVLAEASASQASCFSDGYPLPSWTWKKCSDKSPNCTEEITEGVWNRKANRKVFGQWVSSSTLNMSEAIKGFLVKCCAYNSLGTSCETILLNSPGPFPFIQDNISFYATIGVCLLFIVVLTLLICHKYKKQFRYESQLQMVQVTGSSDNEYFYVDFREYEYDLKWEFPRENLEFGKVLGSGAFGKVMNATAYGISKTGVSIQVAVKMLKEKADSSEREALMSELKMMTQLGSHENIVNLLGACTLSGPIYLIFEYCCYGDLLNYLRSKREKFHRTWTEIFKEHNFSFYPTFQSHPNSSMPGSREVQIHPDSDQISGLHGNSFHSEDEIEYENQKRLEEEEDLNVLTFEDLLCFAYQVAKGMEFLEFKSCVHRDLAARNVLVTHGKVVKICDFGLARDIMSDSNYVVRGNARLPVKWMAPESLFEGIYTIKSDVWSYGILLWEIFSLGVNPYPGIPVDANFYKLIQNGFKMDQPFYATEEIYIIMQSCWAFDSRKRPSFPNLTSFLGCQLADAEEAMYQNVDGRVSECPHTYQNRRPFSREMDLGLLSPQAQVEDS

The target in test [10] is Serine/threonine-protein kinase Chk1 (Homo sapiens, UniProt O14757).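 Note: measured as one member of a kinome-wide kinase profiling panel.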
Test [11] addresses Vascular endothelial growth factor receptor 2 (Homo sapiens, UniProt P35968).
The target in test [12] is RAC-alpha serine/threonine-protein kinase (Homo sapiens, UniProt P31749).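 Note: AKT1 affinity measured as one member of a kinome-wide kinase profiling panel.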
In test [13] the target is Cyclin-dependent kinase 19 (Homo sapiens, UniProt Q9BWU1). Put plainly: Navigating the Kinome. Panel member name: CDC2L6.
Test [14] concerns the target Serine/threonine-protein kinase PLK1 (Homo sapiens, UniProt P53350).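 Note: PLK1 measured as one member of a kinome-wide profiling panel.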
For test [15], the target named is Cyclin-dependent kinase 9 (Homo sapiens, UniProt P50750).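 Note: value from the CDK9 entry of a kinome-spanning kinase panel.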
Chain of Cyclin-dependent kinase 9 (P50750 whole entry): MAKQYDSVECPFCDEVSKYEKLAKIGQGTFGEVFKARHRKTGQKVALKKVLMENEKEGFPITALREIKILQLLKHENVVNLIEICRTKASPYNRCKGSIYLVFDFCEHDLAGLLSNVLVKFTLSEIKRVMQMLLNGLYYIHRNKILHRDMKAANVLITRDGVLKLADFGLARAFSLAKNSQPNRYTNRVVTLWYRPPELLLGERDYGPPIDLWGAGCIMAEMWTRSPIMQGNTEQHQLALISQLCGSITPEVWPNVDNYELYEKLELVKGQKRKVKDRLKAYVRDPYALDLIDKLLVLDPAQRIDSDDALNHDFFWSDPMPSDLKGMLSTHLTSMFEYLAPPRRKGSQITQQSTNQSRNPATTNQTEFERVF
Test [16] has as its target cAMP-dependent protein kinase catalytic subunit alpha (Homo sapiens, UniProt P17612).
Test [17] deals with Macrophage colony-stimulating factor 1 receptor (Homo sapiens, UniProt P07333).
For test [18], the target named is Dual specificity tyrosine-phosphorylation-regulated kinase 1A (Homo sapiens, UniProt Q13627).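 Note: measured against DYRK1A as one member of a broad kinome profiling panel.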
Test [19] concerns the target Mitogen-activated protein kinase 9 (Homo sapiens, UniProt P45984).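 Note: value from a kinome panel profiling assay, MAPK9 panel entry.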
Test [20] concerns the target Mitogen-activated protein kinase 12 (Homo sapiens, UniProt P53778).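 Note: measured as one member of a kinome-wide kinase profiling panel.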
Test [21] has as its target Cell division cycle 7-related protein kinase (Homo sapiens, UniProt O00311).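 Note: value obtained from a kinome-wide kinase panel.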
For test [22], the target named is Homeodomain-interacting protein kinase 2 (Homo sapiens, UniProt Q9H2X6).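 Note: measured within a kinome-wide kinase profiling panel, HIPK2 being one panel member.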
The target in test [23] is T2, Interleukin-1 receptor-associated kinase 4 (Homo sapiens, UniProt Q9NWZ3).
T2 sequence (Q9NWZ3 whole entry): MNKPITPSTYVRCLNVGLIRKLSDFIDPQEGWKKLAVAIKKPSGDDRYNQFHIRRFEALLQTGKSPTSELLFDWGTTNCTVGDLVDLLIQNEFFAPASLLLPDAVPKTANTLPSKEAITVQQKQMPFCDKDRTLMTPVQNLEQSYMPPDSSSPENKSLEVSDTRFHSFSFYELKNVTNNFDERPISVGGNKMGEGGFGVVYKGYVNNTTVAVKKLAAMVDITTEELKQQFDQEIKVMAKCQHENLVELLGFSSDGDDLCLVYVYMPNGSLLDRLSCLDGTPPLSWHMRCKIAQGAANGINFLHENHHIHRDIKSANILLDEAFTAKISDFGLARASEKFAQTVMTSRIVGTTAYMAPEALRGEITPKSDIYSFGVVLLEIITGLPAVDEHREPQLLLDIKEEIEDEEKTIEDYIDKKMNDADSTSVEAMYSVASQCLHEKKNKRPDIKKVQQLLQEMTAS

In test [24] the target is Cyclin-dependent kinase 7 (Homo sapiens, UniProt P50613).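 Note: value comes from a kinome-wide kinase profiling panel in which CDK7 is one member.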
Test [25] has as its target Mitogen-activated protein kinase kinase kinase kinase 4 (Homo sapiens, UniProt O95819).
Test [26] has as its target Tyrosine-protein kinase Lck (Homo sapiens, UniProt P06239).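 Note: lck was assayed as one member of a kinase panel.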
For another test, the target named is Activin receptor type-1 (Homo sapiens, UniProt Q04771). In words: Navigating the Kinome. Panel member name: ACVR1.
Test [27] has as its target Proto-oncogene tyrosine-protein kinase Src (Homo sapiens, UniProt P12931).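 Note: SRC entry within a kinome-wide kinase profiling panel.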
The target of test [28] is Platelet-derived growth factor receptor alpha (Homo sapiens, UniProt P16234). Put plainly: Navigating the Kinome. Panel member name: PDGFRA.
Test [29] addresses BDNF/NT-3 growth factors receptor (Homo sapiens, UniProt Q16620).
Test [30] addresses Leukocyte tyrosine kinase receptor (Homo sapiens, UniProt P29376). Put plainly: Navigating the Kinome. Panel member name: LTK.

The structures appear in SMILES notation. Activity calls are given as the source filed them.

Chain of Serine/threonine-protein kinase pim-1 (P11309 whole entry): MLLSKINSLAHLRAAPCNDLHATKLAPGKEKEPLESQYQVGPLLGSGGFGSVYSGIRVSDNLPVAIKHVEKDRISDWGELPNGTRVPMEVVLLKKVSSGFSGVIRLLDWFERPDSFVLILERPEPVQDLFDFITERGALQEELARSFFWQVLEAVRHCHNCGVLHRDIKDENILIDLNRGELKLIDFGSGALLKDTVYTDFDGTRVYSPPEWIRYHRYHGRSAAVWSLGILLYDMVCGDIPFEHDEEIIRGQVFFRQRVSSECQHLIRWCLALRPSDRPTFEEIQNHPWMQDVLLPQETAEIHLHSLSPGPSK
Chain of Mitogen-activated protein kinase kinase kinase kinase 4 (O95819 whole entry): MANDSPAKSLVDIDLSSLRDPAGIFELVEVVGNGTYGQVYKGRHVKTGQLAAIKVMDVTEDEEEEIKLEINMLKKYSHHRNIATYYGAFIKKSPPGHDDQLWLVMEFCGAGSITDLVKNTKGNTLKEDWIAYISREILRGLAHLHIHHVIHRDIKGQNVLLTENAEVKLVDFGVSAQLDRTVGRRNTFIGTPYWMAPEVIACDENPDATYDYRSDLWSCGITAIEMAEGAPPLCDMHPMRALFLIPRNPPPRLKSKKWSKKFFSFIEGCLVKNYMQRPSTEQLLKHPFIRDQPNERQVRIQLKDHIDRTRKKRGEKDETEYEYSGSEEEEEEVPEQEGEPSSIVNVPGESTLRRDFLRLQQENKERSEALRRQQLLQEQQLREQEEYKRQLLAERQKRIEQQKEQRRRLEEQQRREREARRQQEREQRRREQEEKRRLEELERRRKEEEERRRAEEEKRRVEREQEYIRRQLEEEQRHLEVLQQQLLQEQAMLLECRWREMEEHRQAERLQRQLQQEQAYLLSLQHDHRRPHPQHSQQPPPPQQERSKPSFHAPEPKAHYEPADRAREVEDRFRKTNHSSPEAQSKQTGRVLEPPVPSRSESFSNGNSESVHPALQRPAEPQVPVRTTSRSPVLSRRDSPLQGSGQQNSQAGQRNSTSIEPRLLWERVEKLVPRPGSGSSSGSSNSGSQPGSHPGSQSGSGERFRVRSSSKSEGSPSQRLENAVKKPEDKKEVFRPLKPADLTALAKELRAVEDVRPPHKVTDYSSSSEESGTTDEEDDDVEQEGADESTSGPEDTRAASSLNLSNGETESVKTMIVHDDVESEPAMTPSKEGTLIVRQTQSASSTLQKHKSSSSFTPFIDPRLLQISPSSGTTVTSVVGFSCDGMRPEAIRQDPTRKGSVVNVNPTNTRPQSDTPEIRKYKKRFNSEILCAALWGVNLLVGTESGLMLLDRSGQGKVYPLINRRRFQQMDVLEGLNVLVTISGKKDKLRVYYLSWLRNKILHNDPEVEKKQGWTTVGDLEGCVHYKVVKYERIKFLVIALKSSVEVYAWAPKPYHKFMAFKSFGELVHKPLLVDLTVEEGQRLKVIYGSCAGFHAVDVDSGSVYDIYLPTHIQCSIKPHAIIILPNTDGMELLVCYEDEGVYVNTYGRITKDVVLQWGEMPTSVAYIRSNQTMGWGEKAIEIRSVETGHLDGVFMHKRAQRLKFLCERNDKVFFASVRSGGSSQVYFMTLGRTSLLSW
Chain of Mitogen-activated protein kinase 12 (P53778 whole entry): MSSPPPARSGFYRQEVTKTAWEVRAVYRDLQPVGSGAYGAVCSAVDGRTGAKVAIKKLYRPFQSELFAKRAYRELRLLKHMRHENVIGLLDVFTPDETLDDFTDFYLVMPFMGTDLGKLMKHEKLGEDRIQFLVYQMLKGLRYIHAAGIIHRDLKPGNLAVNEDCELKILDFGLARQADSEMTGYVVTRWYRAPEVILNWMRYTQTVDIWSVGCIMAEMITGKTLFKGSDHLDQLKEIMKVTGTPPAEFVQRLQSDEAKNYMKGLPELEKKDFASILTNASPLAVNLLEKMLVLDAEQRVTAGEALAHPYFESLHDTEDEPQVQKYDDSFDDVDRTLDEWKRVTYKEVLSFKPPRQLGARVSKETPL
Chain of Mitogen-activated protein kinase 9 (P45984 whole entry): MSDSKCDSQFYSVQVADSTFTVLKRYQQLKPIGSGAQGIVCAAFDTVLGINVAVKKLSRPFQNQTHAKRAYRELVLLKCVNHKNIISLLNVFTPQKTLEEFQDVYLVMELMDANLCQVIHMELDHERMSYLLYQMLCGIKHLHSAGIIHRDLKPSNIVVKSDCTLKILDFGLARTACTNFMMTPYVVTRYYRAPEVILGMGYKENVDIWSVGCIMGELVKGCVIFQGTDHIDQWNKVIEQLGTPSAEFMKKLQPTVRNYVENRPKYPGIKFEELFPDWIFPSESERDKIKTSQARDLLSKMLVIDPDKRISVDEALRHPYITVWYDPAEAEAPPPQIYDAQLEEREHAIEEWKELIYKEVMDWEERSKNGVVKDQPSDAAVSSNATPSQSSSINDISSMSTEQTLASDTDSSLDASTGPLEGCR
Chain of Aurora kinase A (O14965 whole entry): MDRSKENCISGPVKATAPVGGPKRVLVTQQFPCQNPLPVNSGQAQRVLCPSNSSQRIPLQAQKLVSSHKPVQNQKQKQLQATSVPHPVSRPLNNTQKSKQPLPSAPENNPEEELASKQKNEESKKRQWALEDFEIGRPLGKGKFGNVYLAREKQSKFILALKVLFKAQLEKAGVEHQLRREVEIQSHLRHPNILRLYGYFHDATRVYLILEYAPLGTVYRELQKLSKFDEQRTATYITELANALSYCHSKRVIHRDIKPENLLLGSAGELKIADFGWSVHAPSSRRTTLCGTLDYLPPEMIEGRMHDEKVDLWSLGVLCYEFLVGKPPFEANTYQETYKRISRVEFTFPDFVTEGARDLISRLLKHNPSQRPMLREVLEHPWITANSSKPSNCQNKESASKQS

For `O=C(Nc1ccccc1)Nc1ccccn1`, the Ki was > 100 µM (inactive) in test [1]; > 79.4 µM (inactive) in test [2]; > 100 µM (inactive) in test [3]; > 39.8 µM (inactive) in test [4]; 79.4 µM (active) in test [5]; > 63.1 µM (inactive) on Aurora kinase A. The Ki is > 50.1 µM (inactive) in test [6]; > 50.1 µM (inactive) at Insulin receptor; 50.1 µM (active) in test [7]; > 79.4 µM (inactive) in [8]; 3.16 µM (active) in [9]; > 79.4 µM (inactive) in [10]. Besides, the Ki in test [11] was > 100 µM (inactive); on Aurora kinase B, 79.4 µM (active); in [12] it was > 79.4 µM (inactive); in [13], > 100 µM (inactive); in test [14], > 79.4 µM (inactive); in test [15], > 63.1 µM (inactive). Moreover, the Ki is > 50.1 µM (inactive) in test [16], > 63.1 µM (inactive) in [17] and > 79.4 µM (inactive) in test [18].

Consider `CN(C)CCCN(C)C(=O)C1Cc2[nH]cnc2C2(CCCCC2)N1` (centres undefined), for which the inhibition constant (Ki) in test [19] is 2.51 µM (active); in test [20], 3.16 µM (active).

Turning to `NC(=O)c1ccccc1Nc1nc(Nc2ccccc2)ncc1C(F)(F)F`, the Ki in [5] was 2.51 µM (active); in test [21], 0.00501 µM (active); in test [22], 0.00398 µM (active); in [23] it was 0.0398 µM (active); in [24], 0.00501 µM (active); in test [15], 0.0398 µM (active). Moreover, the Ki was 0.2 µM (active) in test [16] and 0.0251 µM (active) in test [25].

Regarding `COc1cc(Nc2ncc3c(n2)-c2ccc(Cl)cc2C(c2c(F)cccc2OC)=NC3)ccc1C(=O)O` [ALISERTIB], the Ki was 0.316 µM (active) in [26]; > 3.98 µM (inactive) at Activin receptor type-1; 0.316 µM (active) in [27]; > 1 µM (inactive) in test [8]; > 1 µM (inactive) in test [28]; 1 µM (active) in test [29]. For the same compound, the Ki in [16] is 0.631 µM (active); in test [30], 0.398 µM (active).

By Ki is commonly meant a dissociation constant, usually derived from enzyme kinetics or from competition with a known ligand.

The values are drawn from ChEMBL document CHEMBL1201862, “PubChem BioAssay data set” (2004).
